# Laboratory results published in paper PMC4834188, “Benzyl-1,2,4-triazoles as CB1 Cannabinoid Receptor Ligands: Preparation and In Vitro Pharmacological Evaluation” (International Journal of Medicinal Chemistry, 2016).
# Entries after “also recorded” stand apart in the source; their conditions may differ.
# Experiments:
# CB1R [1] = target: T1, CB1R (Rattus norvegicus, UniProt P20272); assay: CB1R radioligand binding assay versus [3H]-SR141716A in rat cerebellar membranes; conditions: for CB1R affinity (in words): radioligand not given; for Ki: radioligand [3H]-SR141716, mean ± standard error, three independent experiments in triplicate, read-out: K i (nM) CB1R versus [^3H]-SR141617
# T1 construct: from tissue; host or cells: rat cerebellum (membranes)
# T1 sequence (P20272 whole entry): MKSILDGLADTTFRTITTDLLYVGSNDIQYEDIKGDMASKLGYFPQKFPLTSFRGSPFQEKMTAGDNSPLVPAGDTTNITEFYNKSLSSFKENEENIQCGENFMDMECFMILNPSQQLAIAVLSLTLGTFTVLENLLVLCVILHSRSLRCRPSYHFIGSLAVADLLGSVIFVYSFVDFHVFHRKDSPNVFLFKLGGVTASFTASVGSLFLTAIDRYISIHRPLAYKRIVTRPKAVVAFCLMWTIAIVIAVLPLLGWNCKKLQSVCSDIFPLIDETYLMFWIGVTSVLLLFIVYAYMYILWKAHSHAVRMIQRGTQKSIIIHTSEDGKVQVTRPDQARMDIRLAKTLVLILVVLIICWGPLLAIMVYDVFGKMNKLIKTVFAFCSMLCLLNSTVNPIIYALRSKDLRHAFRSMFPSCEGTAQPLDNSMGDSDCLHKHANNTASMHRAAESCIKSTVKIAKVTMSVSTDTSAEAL
# Text: (§1) Radioligand Binding Assays. […] Competitive radioligand binding assays have been used to evaluate the affinity of selected synthetized triazoles to CB1R in rat cerebellar membranes.
# CB1R [2] = target: T1, CB1R; assay: CB1R radioligand binding assay versus [3H]-WIN552122 in rat cerebellar membranes
# Text: as §1
# obese animals = test system: obese animals; design: method as in PMID 16750544, PMID 18426510, PMID 21951309; conditions: cited from earlier work
SMILES,CB1R affinity (in words) (CB1R [1]),melting point,other results
"CCCCCCCc1nc(-c2ccccc2)nn1Cc1ccccc1 [Compound 7a, 1-Benzyl-5-heptyl-3-phenyl-1H-1,2,4-triazole]",moderate CB1R affinity,,
"CCCCCCCc1nc(-c2ccccc2)nn1Cc1ccc(Cl)cc1 [Compound 8a, 1-(4-Chlorobenzyl)-5-heptyl-3-phenyl-1H-1,2,4-triazole]",moderate CB1R affinity,,
"CCCCCCCc1nc(-c2ccccc2)n(Cc2ccc(Cl)cc2Cl)n1 [Compound 9b, 1-(2,4-Dichloro-benzyl)-3-heptyl-5-phenyl-1H-1,2,4-triazole]",,70 to 73 °C,
"CCCCCCCc1nc(-c2ccc(Cl)cc2)nn1Cc1ccccc1 [Compound 10a, 1-Benzyl-3-(4-chlorophenyl)-5-heptyl-1H-1,2,4-triazole]",moderate CB1R affinity,,
"CCCCCCCc1nc(-c2ccc(Cl)cc2)nn1Cc1ccc(Cl)cc1 [Compound 11a, 1-(4-Chlorobenzyl)-3-(4-chlorophenyl)-5-heptyl-1H-1,2,4-triazole]",moderate CB1R affinity,,
"CCCCCCCc1nc(-c2ccc(Cl)cc2)nn1Cc1ccc(Cl)cc1Cl [Compound 12a, 3-(4-Chlorophenyl)-1-(2,4-dichlorobenzyl)-5-heptyl-1H-1,2,4-triazole]",CB1R affinity in the nanomolar range; also recorded: high affinity for CB1R,,"Ki (CB1R [1]): 13.9 nM; K i (nM) CB1R versus [^3H]-WIN552122 (CB1R [2]; radioligand [3H]-WIN552122, mean ± standard error, three independent experiments in triplicate): 323 nM"
"CCCCCCCc1nc(-c2ccc(Cl)cc2)n(Cc2ccc(Cl)cc2Cl)n1 [Compound 12b, 5-(4-Chlorophenyl)-1-(2,4-dichlorobenzyl)-3-heptyl-1H-1,2,4-triazole]",,97 to 99 °C,
"CCCCCCCc1nc(-c2ccncc2)n(Cc2ccc(Cl)cc2Cl)n1 [Compound 15b, 4-[1-(2,4-Dichlorobenzyl)-3-heptyl-1H-1,2,4-triazol-5-yl]pyridine]",,104 to 105 °C,
"CCCCCCCc1nc(-c2cc[n+](C)cc2)nn1Cc1ccc(Cl)cc1Cl.[I-] [Compound 18, 4-[1-(2,4-Dichlorobenzyl)-5-heptyl-1H-1,2,4-triazol-3-yl]-1-methylpyridinium Iodide]",,136 to 138 °C,
"CCCCCCc1nc(-c2ccc(Cl)cc2)n(-c2ccc(Cl)cc2Cl)n1 [LH21, 5-(4-chlorophenyl)-1-(2,4-dichlorophenyl)-3-hexyl-1H-1,2,4-triazole, reference compound]",,,"Ki (CB1R [1]): 856 ± 296 nM; Ki (CB1R [2]; read-out: K i (nM) CB1R versus [^3H]-WIN552122, radioligand [3H]-WIN552122, mean ± standard error, three independent experiments in triplicate): 748 ± 193 nM; antiobesity activity in in vivo assays (obese animals): exhibited antiobesity activity"
